{
  "source": "patent US9695155B2",
  "about": "“Herbicidal substituted pyrimidinyloxy benzene compounds” (E. I. DU PONT DE NEMOURS AND COMPANY, priority 2013, dated 2017)",
  "key": {"morningglory [1]": {"tested_on": "morningglory", "test": "Test A preemergence", "type": "in vivo, Ipomoea spp.", "outline": "(§1)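 Scoring: eye-based comparison with untreated controls, 0 for no effect through 100 for complete control, at about day 10. Treatments: directed soil spray preemergence; foliar spray postemergence on 2–10 cm plants at the one- to two-leaf stage. Medium: loam soil with sand.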"}, "velvetleaf [2]": {"tested_on": "velvetleaf", "test": "Test A preemergence", "type": "in vivo, Abutilon theophrasti", "outline": "as §1"}, "wheat [3]": {"tested_on": "wheat", "test": "Test A preemergence", "type": "in vivo, Triticum aestivum", "outline": "as §1"}, "morningglory [4]": {"tested_on": "morningglory", "test": "Test A postemergence", "type": "in vivo, Ipomoea spp.", "details": "0 to 100 scale where 0 is no effect and 100 is complete control", "outline": "as §1"}, "velvetleaf [5]": {"tested_on": "velvetleaf", "test": "Test A postemergence", "type": "in vivo, Abutilon theophrasti", "details": "0 to 100 scale where 0 is no effect and 100 is complete control", "outline": "as §1"}, "wheat [6]": {"tested_on": "wheat", "test": "Test A postemergence", "type": "in vivo, Triticum aestivum", "details": "0 to 100 scale where 0 is no effect and 100 is complete control", "outline": "as §1"}, "sedge, umbrella": {"tested_on": "sedge, umbrella", "test": "Test B flooded paddy test", "type": "in vivo, Cyperus difformis", "details": "Flood, 250 g ai/ha; 0 to 100 scale where 0 is no effect and 100 is complete control", "outline": "(§2)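 Evaluation is visual, against untreated controls, 13 to 15 days after treatment. Before treatment, plants reached the 2-leaf stage; pots were then flooded 3 cm deep, compound was added to the water, and that level was maintained. Ratings run 0 to 100, with 100 meaning complete control.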"}, "Heteranthera limosa": {"tested_on": "Heteranthera limosa", "test": "Test B flooded paddy test", "type": "in vivo", "details": "Flood, 250 g ai/ha; 0 to 100 scale where 0 is no effect and 100 is complete control", "outline": "as §2"}, "blackgrass": {"tested_on": "blackgrass", "test": "Test C preemergence", "type": "in vivo, Alopecurus myosuroides", "details": "for Blackgrass plant response rating: preemergence", "outline": "(§3)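 Plants were kept under greenhouse conditions for 13–15 days following spray. Pre-emergent application went to soil (loam–sand), post-emergent to foliage at 1–4 leaves. Evaluation: visual, percent control against untreated checks.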"}, "Italian ryegrass": {"tested_on": "Italian ryegrass", "test": "Test C preemergence", "type": "in vivo, Lolium multiflorum", "details": "for Ryegrass, Italian plant response rating: preemergence", "outline": "as §3"}, "wheat, winter": {"tested_on": "wheat, winter", "test": "Test C preemergence", "type": "in vivo, Triticum aestivum", "details": "for Wheat plant response rating: preemergence", "outline": "as §3"}, "johnsongrass": {"tested_on": "johnsongrass", "test": "Test C preemergence", "type": "in vivo, Sorghum halepense", "details": "for Johnsongrass plant response rating: preemergence", "outline": "as §3"}, "ragweed": {"tested_on": "ragweed", "test": "Test C preemergence", "type": "in vivo, Ambrosia elatior", "details": "for Ragweed plant response rating: preemergence", "outline": "as §3"}, "velvetleaf [7]": {"tested_on": "velvetleaf", "test": "Test C preemergence", "type": "in vivo, Abutilon theophrasti", "details": "for Velvetleaf plant response rating: preemergence", "outline": "as §3"}, "pigweed": {"tested_on": "pigweed", "test": "Test C postemergence", "type": "in vivo, Amaranthus retroflexus", "outline": "as §3"}, "waterhemp": {"tested_on": "waterhemp", "test": "Test C postemergence", "type": "in vivo, Amaranthus rudis", "outline": "as §3"}, "[8]": {"details": "500 g ai/ha, 0 to 100 scale where 0 is no effect and 100 is complete control"}, "[9]": {"details": "16 g ai/ha, scale 0 to 100 (0 no effect, 100 complete control)"}, "[10]": {"details": "125 g ai/ha, scale 0 (no effect) to 100 (complete control)"}, "[11]": {"details": "Preemergence, 62 g ai/ha, scale 0 to 100, 0 no effect, 100 complete control"}, "[12]": {"details": "16 g ai/ha, postemergence, 0 is no effect, 100 is complete control"}, "[13]": {"details": "31 g ai/ha, postemergence, visual rating, scale 0 to 100 (0 no effect, 100 complete control), 13 to 15 days"}, "[14]": {"details": "125 g ai/ha, postemergence, visual rating, scale 0 to 100 (0 no effect, 100 complete control)"}, "[15]": {"details": "Postemergence, 62 g ai/ha, scale 0 to 100 (0 no effect, 100 complete control), 13 to 15 days"}},
  "data": [
    {"smiles": "N#Cc1cnn(-c2c(Oc3ncc(Cl)cn3)cccc2C(F)F)c1", "note": "[Compound 236]", "values": [
      {"measurement": "Morningglory plant response rating (0 to 100 scale)", "setting": "morningglory [1]; 125 g ai/ha", "result": 30},
      {"measurement": "Morningglory plant response rating", "setting": "morningglory [1]; [8]", "result": 100},
      {"measurement": "Velvetleaf plant response rating (0 to 100 scale)", "setting": "velvetleaf [2]; 125 g ai/ha", "result": 100},
      {"measurement": "Velvetleaf plant response rating", "setting": "velvetleaf [2]; [8]", "result": 100},
      {"measurement": "Wheat plant response rating (0 to 100 scale)", "setting": "wheat [3]; 125 g ai/ha", "result": 0},
      {"measurement": "Wheat plant response rating", "setting": "wheat [3]; [8]", "result": 100},
      {"measurement": "Morningglory plant response rating", "setting": "morningglory [4]; 125 g ai/ha", "result": 80},
      {"measurement": "Plant response rating, Morningglory", "setting": "morningglory [4]; 500 g ai/ha", "result": 100},
      {"measurement": "Velvetleaf plant response rating", "setting": "velvetleaf [5]; 125 g ai/ha", "result": 90},
      {"measurement": "Plant response rating, Velvetleaf", "setting": "velvetleaf [5]; 500 g ai/ha", "result": 100},
      {"measurement": "Wheat plant response rating", "setting": "wheat [6]; 125 g ai/ha", "result": 50},
      {"measurement": "Plant response rating, Wheat", "setting": "wheat [6]; 500 g ai/ha", "result": 100},
      {"measurement": "Plant response rating, Sedge, Umbrella", "setting": "sedge, umbrella", "result": 100},
      {"measurement": "Plant response rating, Ducksalad", "setting": "Heteranthera limosa", "result": 100},
      {"measurement": "Blackgrass plant response rating", "setting": "blackgrass; [9]", "result": 5},
      {"measurement": "Blackgrass plant response rating", "setting": "blackgrass; [10]", "result": 90},
      {"measurement": "Plant response rating, Blackgrass", "setting": "blackgrass; [11]", "result": 90},
      {"measurement": "Ryegrass, Italian plant response rating", "setting": "Italian ryegrass; [9]", "result": 0},
      {"measurement": "Ryegrass, Italian plant response rating", "setting": "Italian ryegrass; [10]", "result": 85},
      {"measurement": "Plant response rating, Ryegrass, Italian", "setting": "Italian ryegrass; [11]", "result": 45},
      {"measurement": "Wheat plant response rating", "setting": "wheat, winter; [9]", "result": 0},
      {"measurement": "Wheat plant response rating", "setting": "wheat, winter; [10]", "result": 60},
      {"measurement": "Plant response rating, Wheat", "setting": "wheat, winter; [11]", "result": 0},
      {"measurement": "Johnsongrass plant response rating", "setting": "johnsongrass; [9]", "result": 5},
      {"measurement": "Johnsongrass plant response rating", "setting": "johnsongrass; [10]", "result": 85},
      {"measurement": "Plant response rating, Johnsongrass", "setting": "johnsongrass; [11]", "result": 60},
      {"measurement": "Ragweed plant response rating", "setting": "ragweed; [9]", "result": 15},
      {"measurement": "Ragweed plant response rating", "setting": "ragweed; [10]", "result": 90},
      {"measurement": "Plant response rating, Ragweed", "setting": "ragweed; [11]", "result": 85},
      {"measurement": "Velvetleaf plant response rating", "setting": "velvetleaf [7]; [9]", "result": 65},
      {"measurement": "Velvetleaf plant response rating", "setting": "velvetleaf [7]; [10]", "result": 100},
      {"measurement": "Plant response rating, Velvetleaf", "setting": "velvetleaf [7]; [11]", "result": 100},
      {"measurement": "Plant response rating (0 to 100), Pigweed", "setting": "pigweed; [12]", "result": 60},
      {"measurement": "Pigweed plant response rating", "setting": "pigweed; [13]", "result": 90},
      {"measurement": "Plant response rating, Pigweed", "setting": "pigweed; [14]", "result": 95},
      {"measurement": "Plant response rating, Pigweed", "setting": "pigweed; [15]", "result": 90},
      {"measurement": "Plant response rating (0 to 100), Waterhemp", "setting": "waterhemp; [12]", "result": 70},
      {"measurement": "Waterhemp plant response rating", "setting": "waterhemp; [13]", "result": 70},
      {"measurement": "Plant response rating, Waterhemp", "setting": "waterhemp; [14]", "result": 90},
      {"measurement": "Plant response rating, Waterhemp", "setting": "waterhemp; [15]", "result": 90}
    ]}
  ]
}
